Measured values: ChEMBL document CHEMBL5247667, “Design, synthesis and characterizations of prodrugs of brexanolone” (Bioorg Med Chem Lett, 2023)
Blank lines part the entries; values can stand above or below the compound they belong to.

Legend:
[1] = Metabolic stability in human plasma assessed as half life at 1 uM incubated for 60 min by LC-MS/MS method; type: ADME, cell-free
[2] = Metabolic stability in human liver S9 fraction assessed as half life at 1 uM incubated for 60 min by LC-MS/MS method; type: ADME, subcellular
[3] = Metabolic stability in Sprague-Dawley rat plasma assessed as half life at 1 uM incubated for 60 min by LC-MS/MS method; type: ADME, cell-free
[4] = Metabolic stability in beagle dog plasma assessed as half life at 1 uM incubated for 60 min by LC-MS/MS method; type: ADME, cell-free, Canis lupus familiaris
[5] = Metabolic stability in beagle dog liver S9 fraction assessed as half life at 1 uM incubated for 60 min by LC-MS/MS method; type: ADME, subcellular, Canis lupus familiaris
[6] = Metabolic stability in Sprague-Dawley rat liver S9 fraction assessed as half life at 1 uM incubated for 60 min by LC-MS/MS method; type: ADME, subcellular
[7] = Half life in Sprague-Dawley rat at 5 mg/kg, IM administered for 30 mins measured after 24 hrs post dose by LC-MS/MS analysis; type: ADME, organism-based; conditions: in vivo, time 24.5 hrs
[8] = AUClast in Sprague-Dawley rat at 5 mg/kg, IM administered for 30 mins measured after 24 hrs post dose by LC-MS/MS analysis; type: ADME, organism-based; set-up: time 24.5 hrs, dose 5 mg/kg, route im; conditions: in vivo
[9] = Cmax in Sprague-Dawley rat at 5 mg/kg, IM administered for 30 mins measured after 24 hrs post dose by LC-MS/MS analysis; type: ADME, organism-based; set-up: time 24.5 hrs, dose 5 mg/kg, route im; conditions: in vivo
[10] = AUClast in Sprague-Dawley rat assessed as BXN at 5 mg/kg, IM administered for 30 mins measured after 24 hrs post dose by LC-MS/MS analysis; type: ADME, organism-based; set-up: time 24.5 hrs, dose 5 mg/kg, route im; conditions: in vivo, 24.5 h
[11] = Cmax in Sprague-Dawley rat assessed as BXN at 5 mg/kg, IM administered for 30 mins measured after 24 hrs post dose by LC-MS/MS analysis; type: ADME, organism-based; set-up: time 24.5 hrs, dose 5 mg/kg, route im; conditions: in vivo, 24.5 h
[12] = Prodrug conversion in beagle dog assessed as ratio of AUC for compound to BXN at 5 mg/kg,IM and measured after 60 mins by LC-MS/MS analysis; type: ADME, organism-based, Canis lupus familiaris; conditions: in vivo, 1 h
[13] = Prodrug conversion in Sprague-Dawley rat assessed as ratio of AUC for compound to BXN at 1 mg/kg,IV and measured after 60 mins by LC-MS/MS analysis; type: ADME, organism-based; conditions: in vivo, 1 h
[14] = Prodrug conversion in Sprague-Dawley rat assessed as ratio of AUC for compound to BXN at 5 mg/kg,IM and measured after 60 mins by LC-MS/MS analysis; type: ADME, organism-based; conditions: in vivo, 1 h
[15] = Half life in Sprague-Dawley rat assessed as BXN at 1 mg/kg, IV administered for 30 mins measured after 24 hrs post dose by LC-MS/MS analysis; type: ADME, organism-based; conditions: in vivo, 24.5 h
[16] = AUClast in Sprague-Dawley rat at 1 mg/kg, IV administered for 30 mins measured after 24 hrs post dose by LC-MS/MS analysis; type: ADME, organism-based; set-up: dose 1 mg/kg, time 24.5 hrs, route iv; conditions: in vivo
[17] = AUClast in Sprague-Dawley rat assessed as BXN at 1 mg/kg, IV administered for 30 mins measured after 24 hrs post dose by LC-MS/MS analysis; type: ADME, organism-based; set-up: dose 1 mg/kg, time 24.5 hrs, route iv; conditions: in vivo, 24.5 h
[18] = Cmax in Sprague-Dawley rat at 1 mg/kg, IV administered for 30 mins measured after 24 hrs post dose by LC-MS/MS analysis; type: ADME, organism-based; set-up: time 24.5 hrs, dose 1 mg/kg, route iv; conditions: in vivo
[19] = Cmax in Sprague-Dawley rat assessed as BXN at 1 mg/kg, IV administered for 30 mins measured after 24 hrs post dose by LC-MS/MS analysis; type: ADME, organism-based; set-up: time 24.5 hrs, dose 1 mg/kg, route iv; conditions: in vivo, 24.5 h
[20] = Half life in beagle dog assessed as BXN at 5 mg/kg, IM administered for 30 mins measured after 24 hrs post dose by LC-MS/MS analysis; type: ADME, organism-based, Canis lupus familiaris; conditions: in vivo, 24.5 h
[21] = AUClast in beagle dog at 1 mg/kg, IV administered for 30 mins measured after 24 hrs post dose by LC-MS/MS analysis; type: ADME, organism-based, Canis lupus familiaris; set-up: time 24.5 hrs, dose 1 mg/kg, route iv; conditions: in vivo
[22] = AUClast in beagle dog assessed as BXN at 1 mg/kg, IV administered for 30 mins measured after 24 hrs post dose by LC-MS/MS analysis; type: ADME, organism-based, Canis lupus familiaris; set-up: dose 1 mg/kg, time 24.5 hrs, route iv; conditions: in vivo, 24.5 h
[23] = AUClast in beagle dog at 5 mg/kg, IM administered for 30 mins measured after 24 hrs post dose by LC-MS/MS analysis; type: ADME, organism-based, Canis lupus familiaris; set-up: dose 5 mg/kg, time 24.5 hrs, route im; conditions: in vivo
[24] = AUClast in beagle dog assessed as BXN at 5 mg/kg, IM administered for 30 mins measured after 24 hrs post dose by LC-MS/MS analysis; type: ADME, organism-based, Canis lupus familiaris; set-up: time 24.5 hrs, dose 5 mg/kg, route im; conditions: in vivo, 24.5 h
[25] = Cmax in beagle dog at 1 mg/kg, IV administered for 30 mins measured after 24 hrs post dose by LC-MS/MS analysis; type: ADME, organism-based, Canis lupus familiaris; set-up: time 24.5 hrs, dose 1 mg/kg, route iv; conditions: in vivo
[26] = Cmax in beagle dog assessed as BXN at 1 mg/kg, IV administered for 30 mins measured after 24 hrs post dose by LC-MS/MS analysis; type: ADME, organism-based, Canis lupus familiaris; set-up: dose 1 mg/kg, time 24.5 hrs, route iv; conditions: in vivo, 24.5 h
[27] = Cmax in beagle dog at 5 mg/kg, IM administered for 30 mins measured after 24 hrs post dose by LC-MS/MS analysis; type: ADME, organism-based, Canis lupus familiaris; set-up: time 24.5 hrs, dose 5 mg/kg, route im; conditions: in vivo
[28] = Cmax in beagle dog assessed as BXN at 5 mg/kg, IM administered for 30 mins measured after 24 hrs post dose by LC-MS/MS analysis; type: ADME, organism-based, Canis lupus familiaris; set-up: time 24.5 hrs, dose 5 mg/kg, route im; conditions: in vivo, 24.5 h
[29] = Prodrug conversion in beagle dog assessed as ratio of AUC for compound to BXN at 1 mg/kg,IV and measured after 60 mins by LC-MS/MS analysis; type: ADME, organism-based, Canis lupus familiaris; conditions: in vivo, 1 h

SMILES: CC(=O)[C@H]1CC[C@H]2[C@@H]3CC[C@H]4C[C@H](OC(=O)OCCN(C)C(=O)C(C)C)CC[C@]4(C)[C@H]3CC[C@]12C
half-life at 1 µM [1]: 4.82 h | half-life at 1 µM [2]: 0.0717 h

SMILES: CC(=O)[C@H]1CC[C@H]2[C@@H]3CC[C@H]4C[C@H](OC(=O)N(C)CCOC(=O)C(C)C)CC[C@]4(C)[C@H]3CC[C@]12C
half-life at 1 µM [3]: 0.0267 h | half-life at 1 µM [1]: 2.93 h | half-life at 1 µM [4]: 2.3 h | half-life at 1 µM [2]: 0.015 h | half-life at 1 µM [5]: 1.8 min

half-life at 1 µM [1]: > 5 h | half-life at 1 µM [2]: 0.572 h
SMILES: CCCCCCCC(=O)O[C@@H]1CC[C@@]2(C)[C@@H](CC[C@@H]3[C@@H]2CC[C@]2(C)[C@@H](C(C)=O)CC[C@@H]32)C1

SMILES: CCCCCC(=O)O[C@@H]1CC[C@@]2(C)[C@@H](CC[C@@H]3[C@@H]2CC[C@]2(C)[C@@H](C(C)=O)CC[C@@H]32)C1
half-life at 1 µM [3]: > 4.82 h | half-life at 1 µM [1]: > 5 h | half-life at 1 µM [2]: 0.382 h | half-life at 1 µM [6]: 4.7 min | half-life [7]: 7.94 h | AUC(0-t) at 24.5 h [8]: 716 ng·h/mL | Cmax [9]: 130 ng/mL | AUClast [10]: 67.9 ng·h/mL | Cmax [11]: 12.9 ng/mL | Ratio AUC [12]: 0.09

SMILES: CC(=O)[C@H]1CC[C@H]2[C@@H]3CC[C@H]4C[C@H](OC(=O)OCCOC(=O)C(C)C)CC[C@]4(C)[C@H]3CC[C@]12C
half-life at 1 µM [3]: < 0.05 h | half-life at 1 µM [1]: 1.5 h | half-life at 1 µM [4]: 1.53 h | half-life at 1 µM [2]: 0.0417 h | half-life at 1 µM [5]: 2.5 min | Ratio AUC [13]: > 390 | Ratio AUC [14]: 28 | half-life [7]: 2.39 h | AUClast [10]: 390 ng·h/mL | Cmax [11]: 81.2 ng/mL | t1/2 [15]: 13.5 h | AUC(0-t) at 24.5 h [16]: 9.03 ng·h/mL | AUClast [17]: 256 ng·h/mL | Cmax [18]: 45.6 ng/mL | Cmax [19]: 119 ng/mL | t1/2 [20]: 53.3 h | AUC(0-t) at 24.5 h [21]: 238 ng·h/mL | AUClast [22]: 24 ng·h/mL | AUC(0-t) at 24.5 h [23]: 36.5 ng·h/mL | AUClast [24]: 119 ng·h/mL | Cmax [25]: 590 ng/mL | Cmax [26]: 41.9 ng/mL | Cmax [27]: 31.4 ng/mL | Cmax [28]: 11.3 ng/mL | Ratio AUC [29]: 0.1 | Ratio AUC [12]: 3.3

SMILES: CC(=O)OCCCCC(=O)O[C@@H]1CC[C@@]2(C)[C@@H](CC[C@@H]3[C@@H]2CC[C@]2(C)[C@@H](C(C)=O)CC[C@@H]32)C1
half-life at 1 µM [1]: 1.78 h | half-life at 1 µM [4]: 1.45 h | half-life at 1 µM [2]: 0.0133 h | half-life at 1 µM [5]: 1 min

SMILES: COC(=O)N(C)CCOC(=O)O[C@@H]1CC[C@@]2(C)[C@@H](CC[C@@H]3[C@@H]2CC[C@]2(C)[C@@H](C(C)=O)CC[C@@H]32)C1
half-life at 1 µM [1]: 4.82 h | half-life at 1 µM [2]: 0.0117 h
